Data: patent US20230167058A1, “GPX4 COMPOUNDS AND COMPOSITIONS AND METHODS OF TREATMENT USING SAME” (THE TRUSTEES OF COLUMBIA UNIVERSITY IN THE CITY OF NEW YORK, priority 2020, published 2023)
pKd: −log10 of the molar value. Where two headings read alike, the source gives them in different places.

How the values were obtained:
[1] = tested on: GPX4 protein level in HT-1080 cells; experiment: Western blot GPX4 degradation study in HT-1080; assay type: cell-based, human; settings: 1 μM RSL3, 1 μM ML162, 10 μM FIN56, 10 h, with 100 μM α-tocopherol
Method: For the GPX4 degradation study, HT-1080 cells were seeded at 800,000 per well in a 60-mm plate and allowed to adhere overnight. Cells were then treated with 100 μM α-tocopherol and either 1 μM RSL3, 1 μM ML162, 10 μM IKE, 10 μM FIN56, or vehicle for 10 h. Cells were harvested with trypsin (Invitrogen, 25200-114), pelleted, and lysed with RIPA buffer.
For both experiments, cell lysates were blotted and imaged as previously described (Yang et al. 2014). Antibodies used were GPX4 (Abcam, ab125066, 1:250 dilution), actin (Cell Signaling, D18C11, 1:3,000 dilution), and GAPDH (Santa Cruz, sc-47724, 1:10,000 dilution). Results were quantified using a LI-COR Odyssey CLx IR scanner and GraphPad Prism 7.

GPX4^U46C [2] = target: T1, GPX4^U46C (Homo sapiens, UniProt P36969, U73C); experiment: 1H,15N-HSQC-NMR of 15N-labeled GPX4^U46C; assay type: binding; settings: Table 1
T1 construct: His6 (N, cleaved yes); made in house; host or cells: E. coli BL21-Gold (DE3), M9 minimal medium with 15NH4Cl
T1 sequence (P36969 33-197 U73C): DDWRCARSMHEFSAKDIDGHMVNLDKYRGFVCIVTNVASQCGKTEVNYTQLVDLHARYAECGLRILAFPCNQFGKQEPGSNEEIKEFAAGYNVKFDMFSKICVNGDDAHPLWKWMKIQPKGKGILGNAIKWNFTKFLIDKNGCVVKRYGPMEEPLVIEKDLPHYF
Method: Uniformly ^15N-labeled GPX4^U46C protein with N-terminal His6 tag was prepared. The GPX4^U46C construct was expressed in E. coli BL21-Gold (DE3) cells (Stratagene) growing at 37° C. in M9 minimal medium supplemented with […] ampicillin, 2 mM MgSO4, […] CaCl2, 1× trace metals, 1×RPMI 1640 vitamin stock (Sigma-Aldrich, #R7256), […] biotin, […] thiamine hydrochloride, 4 g/L glucose, and 3 g/L ^15NH4Cl as the sole nitrogen source. The following induction, lysis, and protein purification was the same as for the non-isotope-labeled His-tagged GPX4^U46C described above, except the N-terminal His6 tag was removed by adding 5 U/mg thrombin before FPLC purification. The thrombin reaction was after a buffer exchange to remove imidazole, which otherwise would inhibit thrombin, and was allowed to proceed overnight at 4° C.
Then the protein solution was concentrated to 50 μM before testing. For HSQC of GPX4 with other inhibitors, 50 μM ^15N-labeled GPX4 was preincubated with 800 μM inhibitor to be tested for […] at room temperature in buffer (100 mM MES, 5 mM TCEP, pH 6.5). D20 (10%) was then added for the field frequency lock. The ^1H-^15N HSQC spectra were collected on Bruker Avance III 500 Ascend (500 MHz) spectrometers (Columbia University) at 298K. The ^1H carrier frequency was positioned at the water resonance. The ^15N carrier frequency was positioned at 115 ppm. The spectral width in the ^1H dimension was 7,500 Hz and the width in the ^15N dimension was 1,824.6 Hz. Suppression of water signal was accomplished using the WATERGATE sequence. Heteronuclear decoupling was accomplished using GARP decoupling scheme.

GPX4 [3] = target: T2, GPX4 (Homo sapiens, UniProt P36969, U73C); experiment: Microscale thermophoresis (MST) binding to GPX4
T2 sequence (P36969 33-197 U73C): T1 sequence (P36969 33-197 U73C)
Excerpt: (§1) Therefore, we applied a strategy of computer-facilitated design, based on MD simulation (Desmond) and Glide docking (Schrödinger Suite), and experimental high-throughput screening of a lead-optimized compound library of 10,000 compounds (FIGS. 6A-6E). All candidates were first evaluated by thermal denaturation assay and microscale thermophoresis (MST) to validate binding to GPX4 (Table 1). Surface plasmon resonance (SPR) and isothermal titration calorimetry (ITC) were then applied to precisely measure their binding kinetics and affinities, while ^1H-^15N heteronuclear single-quantum coherence (HSQC) NMR spectroscopy informed us of binding sites. We optimized two GPX4-specific activity assays to examine enzymatic inhibitory effects of hit compounds—LC-MS-based substrate/product monitoring and an NADPH-coupled assay. […] Some L880 analogues were also synthesized and tested (Table 2).

GPX4 [4] = target: T2, GPX4; experiment: Surface plasmon resonance (SPR); assay type: binding; settings: Table 1
Excerpt: as §1, with “These x-ray structures enabled further optimization of current inhibitors and the design of novel inhibitors targeting various binding sites on GPX4. Therefore,” for “Therefore,”

GPX4 [5] = target: T3, GPX4 (Homo sapiens, UniProt P36969); experiment: GPX4-specific enzymatic activity assay (LC-MS substrate/product, NADPH-coupled); assay type: biochemical
T3 sequence (P36969 1-170 isoform P36969-2): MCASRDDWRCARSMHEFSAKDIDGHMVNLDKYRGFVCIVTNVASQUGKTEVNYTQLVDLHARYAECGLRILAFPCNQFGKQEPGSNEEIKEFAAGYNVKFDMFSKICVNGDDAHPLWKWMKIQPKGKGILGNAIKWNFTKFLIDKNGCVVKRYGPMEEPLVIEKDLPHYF
Excerpt: as §1, with “These x-ray structures enabled further optimization of current inhibitors and the design of novel inhibitors targeting various binding sites on GPX4. Therefore,” for “Therefore,”

GPX4^U46C [6] = target: T1, GPX4^U46C; experiment: Thermal shift assay (screen of LOC library); assay type: binding; settings: Table 1
Method: To fully utilize the versatility shown by the […] site to accommodate structurally diverse compounds, we applied thermal shift assay to screen 9,719 compounds in the Lead-Optimized-Compound (LOC) library for in vitro binders of GPX4^U46C, which would shift the melting temperature of GPX4^U46C (|ΔTm|>2° C., FIG. 12D) (Kaplan et al. 2015).
Since the binding of small molecules may alter the thermostability of protein, we applied thermal shift assay to screen the LOC library, which determined binding of ligand from the change of the unfolding transition temperature (ΔTm) obtained in the presence of ligands relative to that obtained in the absence of ligands (Kaplan et al. 2015; Lo et al. 2004). For higher throughput purpose, we adapted the assay on 384-well PCR plate. With the assistance of Biomek Automated Liquid Handler (Beckman), 2 μl 10 mM stock solution (in 100% DMSO) of the each compound was transferred from 384-well library plates to 38 μl FPLC buffer (100 mM Tris pH 8.0, 300 mM NaCl, 3 mM TCEP) and mixed in each well of a 384-well mother plate. The compound solution was then dispensed, 12 μl per well, into three 384-well PCR plates. GPX4^U46C protein and Sypro orange were manually added to the plate, with the final concentrations of 5 μM and 5×, respectively, to make a volume of 20 μl per well right before thermal shift analysis of the specific plate. The thermal shift assay was performed on the ViiA 7 Real-Time PCR system (Thermo Fisher) with the thermal protocol: 25° for 15 s, Increase temp to 99° at a rate of 0.05°/sec, 99° for 15 sec. The fluorescence was recorded and analyzed by Protein Thermal Shift™ software. The mean |ΔTm| value for the biological triplicates were calculated and used for hit identification.

GPX4^U46C [7] = target: T1, GPX4^U46C; experiment: Intact protein MALDI MS analysis, GPX4^U46C; assay type: binding; settings: protein preincubated with excess inhibitor
Method: GPX4^U46C or GPX4^AllCys(−)-A46C protein was pre-incubated with DMSO control or the inhibitor to be tested prior to MALDI MS analysis: 50 μM GPX4 protein was incubated with 500 μM inhibitors in FPLC buffer (100 mM Tris pH 8.0, 300 mM NaCl, and 3 mM TCEP) with 5% DMSO at RT for 1 hour before transferring to 4° C. overnight.
1 μl of the ligand-free protein (pre-incubated with DMSO) or protein-inhibitor complex (pre-incubated with the inhibitor to be tested) was mixed with 9 μl of 10 mg/ml sinapinic acid in the matrix solution (70:30 water/acetonitrile, with 0.1% TFA). 1.0 μl of the final mix was deposited onto the target carrier and allowed to air dry. MALDI spectrum was recorded using Bruker ultrafleXtreme MALDI-TOF instrument. The range of m/z detection and suppression was adjusted to accommodate the molecular weight of target protein. 2000 Hz and 50% intensity was applied for the laser setting. For each sample, five cumulative spectra were collected and the sum was recorded for analysis. All MALDI spectra of protein-inhibitor complex were compared with ligand-free protein to determine the mass shift. Mass shifts were aligned with the mass of potential staying group of each inhibitor to conclude covalent binding.

GPX4^U46C [8] = target: T1, GPX4^U46C; experiment: Co-crystal structure of GPX4^U46C with inhibitor; assay type: binding
Method: GPX4^U46C was pre-incubated with the covalent inhibitors before crystallization using the following specifically optimized condition.
RSL3 and ML162 condition: 50 μM GPX4^U46C incubated with 150 μM RSL3 or ML162 in the reaction buffer (20 mM Tris pH 9.0, 100 mM NaCl, 3 mM TCEP, 1.5% DMSO) at 15° C. for 1 hour before transferring to 4° C. overnight. CDS9 condition: 25 μM GPX4^U46C incubated with 2 mM CDS9 in the reaction buffer (100 mM Tris pH 9.0, 300 mM NaCl, 1 mM TCEP, 2% DMSO) at 37° C. for 2 hours before transferring to 4° C. overnight. TMT10 condition: 25 μM GPX4^U46C incubated with 2 mM TMT10 in the reaction buffer (100 mM Tris pH 9.0, 300 mM NaCl, 2% glycerol, 2% DMSO) at 37° C. for 4 hours before transferring to 4° C. overnight. MAC-5576 condition: 50 μM GPX4^U46C protein was incubated with 500 μM MAC-5576 in the reaction buffer (100 mM Tris pH 9.0, 300 mM NaCl, and 3 mM TCEP, 5% DMSO) at RT for 1 hour before transferring to 4° C. overnight.
After confirmation of covalent binding using intact protein MALDI MS analysis, the protein-inhibitor complex were exchanged into crystallization buffer (10 mM Tris pH 8.0, 5 mM TCEP) and concentrated to 5 mg/ml.

Binding site (GPX4^U46C [2])	HSQC assay (GPX4^U46C [2])	MST (GPX4 [3]; Table 1)	SPR (GPX4 [4])	GPX4 enzymatic assay (GPX4 [5])	Thermal shift (GPX4^U46C [6])	pKd (GPX4 [3]; Table 1, read-out: MST Kd)	covalent binding to GPX4^U46C by intact protein MALDI MS (GPX4^U46C [7])	binding site in co-crystal structure (GPX4^U46C [8])	Structure (SMILES)	degradation of endogenous GPX4 [1]	pKd (GPX4 [3])
Allosteric Site 2	positive	positive	positive	positive	positive	5.17	–	–	CN(C)c1ccc(/C=C2\SC(N3CCN(CCO)CC3)=NC2=O)cc1 [LOC957]	–	–
Allosteric Site 2	positive	positive	positive	positive	positive	4.40	–	–	CN(C)C(=O)c1ccc2c(c1)NC(=O)C1CCCN21 (stereo not drawn) [LOC4873]	–	–
–	–	–	–	–	–	–	able to covalently modify GPX4	bound to the cys66 allosteric site	O=C(Oc1cncc(Cl)c1)c1cccs1 [MAC-5576]	–	–

Second part, the molecule before the results:

Structure (SMILES)	Binding site (GPX4^U46C [2])	HSQC assay (GPX4^U46C [2])	MST (GPX4 [3]; Table 1)	SPR (GPX4 [4])	GPX4 enzymatic assay (GPX4 [5])	Thermal shift (GPX4^U46C [6])	pKd (GPX4 [3]; Table 1, read-out: MST Kd)	covalent binding to GPX4^U46C by intact protein MALDI MS (GPX4^U46C [7])	binding site in co-crystal structure (GPX4^U46C [8])	degradation of endogenous GPX4 [1]	pKd (GPX4 [3])
O=S(=O)(NC1CCCCC1)c1ccc2c(c1)C(=NO)c1cc(S(=O)(=O)NC3CCCCC3)ccc1-2 [FIN56]	–	–	–	–	–	–	–	–	–	significantly promoted degradation of GPX4	–
CC(C)(C(=O)[O][Sn]([CH3])([CH3])[CH3])N1C(=O)c2ccccc2C1=O [LOC880]	Allosteric Site 2	positive	positive	positive	positive	positive	–	–	–	–	5.17
